We go through 2 molecules from patent US11497813B2, “Bortezomib conjugates and methods using same” (Frank EBETINO et al., priority 2015, dated 2022).

The test system of one series is C57/B6 mice. Put plainly: Systemic toxicity in C57/B6 mice, daily treatment for 3 weeks. The format is in vivo. The procedure:
C57/B6 mice, 7 w, BP or Btz (0.6 mg/kg), BP-Btz (1.2 mg/k), daily for 3 weeks. FIG. 29A depicts the groups and treatment used in the experimental examples. FIG. 29B depicts a table of experimental data of body weight before and after treatment. […] FIG. 29D depicts experimental data of bone marrow.

A further series relates to UPS activation. Put plainly: Ub^G76V-GFP reporter cells (GFP+ cells) in osteoclast cultures and on pre-incubated bone slices. Format: cell-based, mouse. Conditions: for GFP+ cells on pre-incubated bone slices: BM cells from Ub^G76V-GFP mice on bone slices pre-incubated with compound. The procedure: (§1) FIG. 5A is a scheme of an exemplary synthesis of compound BP-Btz1. FIG. 5B is a series of images of bone slices pre-incubated with 1 μM BP-Btz1, Btz, or bisphosphonate (BP) overnight. Drug solutions were removed and bone slices were washed with PBS extensively. […] (BM) cells from UB^G76V-GFP mice were cultured on bone slices in the presence of M-CSF and RANKL for 9 days. Top images (a): GFP^+ cells were observed under a fluorescence microscope and GFP signal intensity was quantified. Middle images (b): bone slices were fixed and subjected to TRAP staining for osteoclasts (OCs). OC #/slice were counted. Bottom images (c): cells were removed from slices. Toluidine blue staining was performed and pit areas/slice were counted. FIG. 5C is a series of images of murine BM cells cultured and stained for ALP. FIG. 5D is a series of images of human MSCs cultured and stained for ALP. Murine BM cells and human MSCs were cultured in the OB-inducing medium plus different concentrations of BP-Btz1 or Btz for 4 or 6 days, respectively. Cells were stained for ALP. The ALP^+ areas were measured by Image J. *P<0.05 vs. Btz-treated cells.
1. Ub^G76V-GFP mice in B6 background (Stock #008111, Jax lab) are generated using previously described methods (Lindsten et al., 2003, Nat. Biotech. 21:897-902). The Ub^G76V-GFP transgene was designed with a chicken beta-actin promoter and CMV immediate early enhancer upstream of a GFP fused to a mutant ubiquitin moiety (Ub^G76V), a constitutively active proteasome degradation signal. Following proteasome inhibitor administration, Ub^G76V accumulates and GFP fluorescence is readily apparent. GFP^+ OCs were detected at 4 and 8 hrs after adding Btz to OC cultures, which disappeared at 24 hrs. […] 2. OC formation and resorption assays and data analyses are performed as described herein (FIG. 4) and using previously described methods (Zhang et al., 2014, J. Clin. Invest. 124:3200-3214; Xiu et al., 2014, J. Clin. Invest. 124:297-310). […] The number and area of OCs and resorption pits are assessed. The appearance, intensity and distribution of GFP^+ cells on bone slices and plastic surrounding bone slices during OC formation is observed and recorded. 3. OB differentiation. Third passages of BM stromal cells are used as MPCs, as previously described (Shu et al., 2013, J. Bone Min. Res. 28:1925-1935; Zhang et al., 2014, J. Clin. Invest. 124:3200-3214). MPCs are cultured on plastic plates in OB-inducing medium±BP-Btz conjugates, Btz or BP (0.1-100 nM) for 1-3 wks. Plates are subjected to alkaline phosphatase (ALP) and alizarin red staining, and qPCR analyses. Area of ALP^+ and mineralized bone nodule, and the expression levels of OB marker genes (ALP, osteocalcin, Runx2) are measured. GFP^+ cells during OB differentiation are observed as in OCs. In a parallel experiment, human MSCs (from Lonza) are treated with BP-Btz, Btz, or BP in OB-inducing medium and their effects examined on OB differentiation as show in FIGS. 5C and 5D. 4. Western blot/Ub assays. OCPs or MPCs are treated with a preferred dose of leading BP-Btz, Btz and BP. OCP lysates are subjected to Western blot using α-NF-κB members and TRAF6 Abs. OB lysates are subjected to Western blot with α-ubiquitin, Runx2, or JunB Abs, and Ub assays using UbiQapture matrix (Biomol) to pull down Ub-proteins followed by α-Runx2 and JunB Abs using previously described methods (Zhao et al., 2010, J. Bone Min. Res. 25:1246-1256; Zhao et al., 2011, Stem cells 29:1601-1610).

For a further series, the system named is WT mice. Description: Bone volume and osteoblast differentiation in WT mice. Format: in vivo, mouse.
The test system of the next series is mouse MPCs. Description: Osteoblast differentiation of mouse MPCs (ALP staining). Format: cell-based. The procedure:
as §1, with “FIG. 5C is a series of images of murine BM cells cultured and stained for ALP. FIG. 5D is a series of images of human MSCs cultured and stained for ALP. Murine BM cells and human MSCs were cultured in the OB-inducing medium plus different concentrations of BP-Btz1 or Btz for 4 or 6 days, respectively. Cells were stained for ALP.” left out
MPCs are cultured in the OB differentiation medium plus or minus Btz, BT-Btz1 or BT-Btz2 (0.1, 0.5, 1, 5, 10 μM) for 1 to 3 weeks. […] The area of ALP+ and mineralized bone nodule is assessed. The expression levels of OB marker genes (ALP, osteocalcin, Runx2) is measured.
1. […] Following proteasome inhibitor administration, Ub^G76V accumulates and GFP fluorescence is readily apparent. GFP^+ OCs were detected at 4 and 8 hrs after adding Btz to OC cultures, which disappeared at 24 hrs. […] The number and area of OCs and resorption pits are assessed. […]

A further series has as its system fractured aged mice. Description: Tibial fracture healing in aged (20-m-old) mice. Format: in vivo, mouse. The procedure: 20-m-old B6 mice had tibial fractures and were given Btz (0.6 mg/kg body weight, i.p.) or saline (Ctl) at day 1, 3, and 5 post-fracture 3 times. FIG. 8A is a graph depicting callus volumes for mice subjected to μCT at day 28. FIG. 8B is a graph depicting experimental data from mice subjected to bio-mechanical testing at day 28. FIG. 8C is a graph depicting experimental data of mice sacrificed for histological analyses at day 28. Values are the mean of 6 mice. *P<0.05 vs. saline-treated mice. FIG. 8D is a graph of data from 3-m-old (young) and 20-m-old (aged) mice after tibial fracture surgery and sacrificed at day 14 post-fracture. The % of CD45^−CD105^+Sca-1^+ cells in fracture callus were determined by flow cytometry as depicted in FIG. 7B. Values are the mean of 4 mice. *P<0.05 vs. saline-treated aged mice. #P<0.05 vs. young mice.

Take `CC(C)C[C@H](NC(=O)[C@H](Cc1ccccc1)NC(=O)c1cnccn1)B1OCCN(CCOC(=O)NC(P(=O)(O)O)P(=O)(O)O)CCO1` [BP-Btz1]: in the series on C57/B6 mice (C57/B6 mice, 7 w, daily for 3 weeks), the “B cell numbers in bone marrow” value is “reduces B cell numbers”. Besides, in the series on C57/B6 mice (C57/B6 mice, daily for 3 weeks, compared with Btz), the systemic toxicity entry is on record as “less systemic toxicity than Btz”. Moreover, the “toxic effect on neurons (dorsal root ganglia)” value with C57/B6 mice (EM images of dorsal root ganglia) was “prevents toxic effect on neurons”. The “GFP+ cells on pre-incubated bone slices” value with UPS activation is recorded as “present”. In the series on WT mice (WT mice, FIG. 17), the bone volume entry is given as “increases bone volume” and the osteoblast differentiation entry is on record as “increases”. Also, the osteoblast differentiation entry in the series with mouse MPCs is “stimulates osteoblast differentiation”.
Take `CC(C)C[C@H](NC(=O)[C@H](Cc1ccccc1)NC(=O)c1cnccn1)B(O)O` [Btz, [(1R)-3-methyl-1-[[(2S)-1-oxo-3-phenyl-2[(pyrazinylcarbonyl)amino]propyl]amino]butyl] boronic acid]: the “GFP+ OCs after adding compound to OC cultures” value in the series with UPS activation (4 and 8 hrs) is listed as “detected”. In the series on UPS activation (24 hrs), the “GFP+ OCs after adding compound to OC cultures” value is listed as “disappeared”. Besides, in the series on UPS activation, the “GFP+ cells on pre-incubated bone slices” value was “not”. In addition, in the series with WT mice (3-m-old mice, 0.6 mg/kg/i.p. at day 1, 3, 5, read at day 10), the bone volume entry was “increased bone volume”. Besides, the fracture repair entry in the series on fractured aged mice (20-m-old B6 mice, 0.6 mg/kg i.p. day 1, 3, 5) is on record as “promotes fracture repair”. In the series with fractured aged mice (fractured aged mice), the MPCs entry was “increased”, the bone strength result is recorded as “increased” and the callus formation is given as “increased”.
